Assay results published in patent US8785483B2, “Methods for treating COPD” (The Board of Regents of the University of Texas System, priority 2010, dated 2014).

What was measured:
Assay type in all cases: cell-based, human
ERK1/2 = test: Western blot of ERK1/2 phosphorylation in airway epithelial monolayer; conditions: ALI monolayer, AR inhibitor 24 h prior to IL-13
Protocol: (§1) FIG. 7. AR inhibition prevents IL-13-induced phosphorylation of JAK-1, ERK1/2 and STAT-6 in airway epithelial monolayer. The ciliated monolayer of airway cells at ALI was treated with AR inhibitor for 24 h and stimulated with IL-13 for different time periods as indicated. At the end of incubation, cells were lysed and cell lysate was subjected to western blotting using antibodies against phosphorylated and nonphosphorylated JAK-1, ERK1/2 and STAT-6 to analyze the activation of these signaling proteins. A representative blot is shown (n=4). #p<0.001 vs Control; *p<0.01 and **p<0.001 vs IL-13. For air-liquid interface (ALI) culture, SAEC were seeded at 8.5×10^4 cells/12-mm-diameter PET transparent insert with […] pores (12-well millicell culture insert; Millipore) and pre-coated with rat tail collagen type-1 (Sigma-Aldrich). The cells were grown submerged in the differentiation medium as described earlier by Zhen et al. (Am J Respir Cell Mol Biol 36: 244-253, 2007). […] Protein levels were determined using Bradford reagent (Biorad, Hercules, Calif.). […] The blots were then washed, exposed to HRP-conjugated secondary antibodies (1:5,000 dilution) for 1 h, and the antigen-antibody complex was detected by enhanced chemiluminescence (Amersham Pharmacia Biotech, Piscataway, N.J., USA). […]

STAT-6 = test: Western blot of STAT-6 phosphorylation in airway epithelial monolayer; conditions: ALI monolayer, AR inhibitor 24 h prior to IL-13
Protocol: as §1

SPDEF = test: RT-PCR of SPDEF in IL-13-treated SAEC monolayer; conditions: SAEC monolayer at ALI, IL-13 18 h
Protocol: FIGS. 6A-6B. AR inhibition prevents IL-13-induced expression of Mucin and transcription factor SPDEF in airway epithelial cell monolayer. (A) The airway epithelial cell monolayer at ALI was serum starved without or with fidarestat and incubated with IL-13 for 18 h. Total RNA was isolated and subsequently RT-PCR was performed to assess the expression of Muc5AC and SPDEF. The bar diagrams show densitometric analysis of the corresponding blots (n=4). *p<0.001 vs Control; **p<0.001 vs IL-13; (B) The monolayer of ciliated airway cells at ALI was treated with AR inhibitor for 24 h and subsequently incubated with IL-13 for 24 or 48 h. At the end of incubation, cell lysate was prepared and subjected to western blotting using antibodies against Muc5AC, Muc5B, and SPDEF. The membranes were stripped and re-probed with antibodies against GAPDH to show the equal loading of protein. A representative blot is shown (n=4). *p<0.0001 vs Control; **p<0.001 vs IL-13.
For air-liquid interface (ALI) culture, SAEC were seeded at 8.5×10^4 cells/12-mm-diameter PET transparent insert with […] pores (12-well millicell culture insert; Millipore) and pre-coated with rat tail collagen type-1 (Sigma-Aldrich). The cells were grown submerged in the differentiation medium as described earlier by Zhen et al. (Am J Respir Cell Mol Biol 36: 244-253, 2007). […]

NC(=O)[C@@H]1C[C@]2(NC(=O)NC2=O)c2cc(F)ccc2O1 [fidarestat, (2S,4S)-2-aminoformyl-6-fluoro-spiro[chroman-4,4′-imidazolidine]-2′,5′-dione]
decreased significantly: IL-13-induced phosphorylation of ERK1/2 (ERK1/2) | IL-13-induced phosphorylation of STAT-6 (STAT-6) | IL-13-induced SPDEF mRNA levels (SPDEF)
